Laboratory results: patent publication US11673889B2, “Substituted imidazo[4,5-c][1,8]naphthyridines as phosphodiesterase inhibitors” (Nanjing Zhengxiang Pharmaceuticals Co., Ltd., priority 2019, dated 2023)
pIC50: −log10 of the molar value.

Key:
ENPP-1, HEK293 cells = target: T1, ENPP-1, HEK293 cells (Homo sapiens, UniProt P22413); experiment: Cellular enzymatic assay of ENPP-1 inhibitors using TMP-pNP as substrate, HEK 293 cells; format: cell-based
T1 construct: ENPP-1 were mainly expressed on the surface of cell membrane; endogenous in cells; host or cells: HEK293
T1 sequence (P22413 1-925): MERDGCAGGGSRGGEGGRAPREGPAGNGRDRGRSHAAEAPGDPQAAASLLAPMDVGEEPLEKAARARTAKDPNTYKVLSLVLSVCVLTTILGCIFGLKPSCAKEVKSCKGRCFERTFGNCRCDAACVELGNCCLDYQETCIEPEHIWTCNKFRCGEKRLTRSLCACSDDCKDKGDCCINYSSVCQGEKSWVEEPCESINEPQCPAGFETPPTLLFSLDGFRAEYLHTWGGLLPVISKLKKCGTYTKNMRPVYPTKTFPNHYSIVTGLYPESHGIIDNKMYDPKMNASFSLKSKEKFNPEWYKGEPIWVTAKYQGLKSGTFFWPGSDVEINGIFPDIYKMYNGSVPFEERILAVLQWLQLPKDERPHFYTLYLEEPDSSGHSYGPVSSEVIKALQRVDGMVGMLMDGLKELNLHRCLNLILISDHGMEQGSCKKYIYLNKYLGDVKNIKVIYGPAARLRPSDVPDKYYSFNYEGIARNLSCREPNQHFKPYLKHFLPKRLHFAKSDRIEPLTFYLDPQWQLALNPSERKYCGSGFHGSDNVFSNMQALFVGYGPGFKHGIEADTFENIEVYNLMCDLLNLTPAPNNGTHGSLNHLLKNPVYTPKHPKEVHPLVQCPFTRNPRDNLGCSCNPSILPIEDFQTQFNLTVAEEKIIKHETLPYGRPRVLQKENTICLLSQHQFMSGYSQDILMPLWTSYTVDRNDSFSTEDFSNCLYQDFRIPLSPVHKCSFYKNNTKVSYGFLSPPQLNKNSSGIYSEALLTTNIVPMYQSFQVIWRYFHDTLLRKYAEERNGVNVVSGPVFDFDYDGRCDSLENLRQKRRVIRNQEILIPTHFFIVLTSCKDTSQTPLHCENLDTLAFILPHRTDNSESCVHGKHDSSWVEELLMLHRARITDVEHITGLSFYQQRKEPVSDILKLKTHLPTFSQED
Procedure: (§1) ENPP-1 were mainly expressed on the surface of cell membrane where it hydrolytes 2′3′-cGAMP to generate 5′-GMP and 5′-AMP. ENPP-1 also has the ability to hydrolyzes artificial phosphoric acid ester TMP-pNP to nucleotide-5′-monophosphate and p-nitrophcnol there, which is a chromogenic product.
(§2) 8 point of different concentrations of each inhibitor were prepared with the final assay concentrations starting at 20 μM. 3× series dilution by DMEM medium without FBS was applied. Prior to adding inhibitors, 75000 cells per well were incubated at 37° C., 5% CO2 in DMEM for 24 hours. After removing the supernatant medium, 50 μL inhibitor solution was added into each well with cultured cells and incubate at 37° C., 5% CO2 for 60 minutes.
(§3) The IC50 values for percent inhibition versus compound concentration are determined by fitting the inhibition curves using a four-parameter variable slope model in GraphPad Prism® 8.

ENPP-1, Saos-2 cells = target: T2, ENPP-1, Saos-2 cells (Homo sapiens, UniProt P22413); experiment: Cellular enzymatic assay of ENPP-1 inhibitors using TMP-pNP as substrate, Saos-2 cells; format: cell-based
T2 construct: ENPP-1 were mainly expressed on the surface of cell membrane; endogenous in cells; host or cells: Saos-2
T2 sequence (P22413 1-925): T1 sequence (P22413 1-925)
Procedure: as §1, §2, §3

human soluble ENPP1 [1] = target: T3, human soluble ENPP1 (Homo sapiens, UniProt P22413); experiment: ENPP1 activity assay using p-Nitrophenyl-5′-AMP as a substrate; format: biochemical
T3 construct: 20 ng of human soluble ENPP1
T3 sequence (P22413 103-925 limits assumed): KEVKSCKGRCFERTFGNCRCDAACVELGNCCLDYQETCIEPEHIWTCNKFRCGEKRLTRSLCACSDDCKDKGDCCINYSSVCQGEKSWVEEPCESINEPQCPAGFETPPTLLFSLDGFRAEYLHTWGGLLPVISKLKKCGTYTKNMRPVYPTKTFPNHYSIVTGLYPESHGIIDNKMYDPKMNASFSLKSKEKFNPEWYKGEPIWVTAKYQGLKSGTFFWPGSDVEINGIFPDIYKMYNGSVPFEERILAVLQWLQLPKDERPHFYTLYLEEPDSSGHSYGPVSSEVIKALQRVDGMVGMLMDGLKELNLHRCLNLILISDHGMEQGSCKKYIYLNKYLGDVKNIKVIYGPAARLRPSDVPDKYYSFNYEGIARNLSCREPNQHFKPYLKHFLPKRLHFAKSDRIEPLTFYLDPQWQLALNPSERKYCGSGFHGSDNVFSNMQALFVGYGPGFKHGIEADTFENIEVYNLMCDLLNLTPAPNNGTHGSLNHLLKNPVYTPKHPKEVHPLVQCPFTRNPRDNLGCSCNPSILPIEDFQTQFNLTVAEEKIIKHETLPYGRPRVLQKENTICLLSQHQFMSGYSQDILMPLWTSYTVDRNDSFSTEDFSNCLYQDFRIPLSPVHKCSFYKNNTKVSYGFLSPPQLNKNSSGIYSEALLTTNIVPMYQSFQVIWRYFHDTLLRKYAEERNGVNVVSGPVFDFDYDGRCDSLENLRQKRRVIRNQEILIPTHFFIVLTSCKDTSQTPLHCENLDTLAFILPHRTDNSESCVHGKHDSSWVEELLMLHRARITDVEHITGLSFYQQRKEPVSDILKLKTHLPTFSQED
How it was run: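 Absorbance at 405 nm tracks p-nitrophenol from AMP-pNP hydrolysis after 1 h at room temperature, substrate added as 3 mM (2× final) following 30 min enzyme–compound preincubation. Enzyme: 35 ng human soluble ENPP1. IC50 fitted (variable-slope four-parameter) from percent inhibition normalized to max and blank.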

[2] = Liver microsome stability, human; format: in vitro ADME
Procedure: (§4) Liver microsome assay was used to evaluate the metabolic stability of I-VI. The test article at the concentration of […] was incubated with 0.5 mg/mL liver microsome in the presence of NADPH and UDPGA as the co-factors for 0, 15, 30, 45 and 60 minutes. The incubation was carried out at 37° C. with 5% CO2 and saturating humidity. Disappearance of the test article was monitored by LC/MS/MS. the disappearance half-life (t1/2), intrinsic clearance and hepatic extraction ratio were determined.

human soluble ENPP1 [3] = target: T3, human soluble ENPP1; experiment: ENPP1 activity assay using p-Nitrophenyl-5′-TMP as a substrate; format: biochemical
How it was run: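 Percent inhibition, set against uninhibited-enzyme and blank wells, was fitted to a four-parameter variable-slope model for IC50. Chromogenic read-out was p-nitrophenol released from TMP-pNP, added as a 2 mM […] solution for 1 h at RT. Before that, 20 ng soluble ENPP1 sat 30 min with compound.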

ENPP-1, MDA-MB-231 cells = target: T4, ENPP-1, MDA-MB-231 cells (Homo sapiens, UniProt P22413); experiment: cell-based; settings: for inhibition at 20 µM: MDA-MB-231, read-out: % Inhibition (at 20 μM)
T4 sequence (P22413 1-925): T1 sequence (P22413 1-925)

[4] = Liver microsome stability, mouse; format: in vitro ADME
Procedure: as §4

[5] = test system: cGAMP activated THP-1 cells; experiment: ENPP1 inhibitors screening on cGAMP activated THP-1 cells (IFN-β ELISA); format: cell-based; settings: THP-1 cells with 2′3′-cGAMP, 24 hours, FIGS. 1A-1E
Procedure: THP-1 cells from bulk cultures were counted and suspended in RPMI 1640, 20% FBS, 2.5 mM L-alanyl-L-glutamine at a concentration of 5.5×10^6 cells/mL. The THP-1 cells were subsequently seeded into 96 well round bottom plates 180 μL/well (1×10^6 cells per well), incubated for 1 hour at 37° C., 5% CO2.
Test compounds were screened in triplicate on THP-1 cells at a final concentration of 10 μM. A working solutions at 0.2 mM. Each well contains 180 μL of THP-1 cell suspension, 10 μL (30 μM, 40 μM or 50 μM) 2′3′-cGAMP (InvivoGen, catalog #tlrl-nacga23) solution (600 μM, 800 μM or 1000 μM) and 10 μL test compound working solution. Incubate for 1 hour.
Vehicle control wells contain 2′3′-cGAMP at concentrations of […] and 50 μM without any test compound. Positive control, 2′3′-cGAMP or 2′,3′-cGAM(PS)2 (Rp/Sp) (InvivoGen, cat #tlrl-nacga2srs) at 40 μM and 80 μM (final concentration).
The final assay volume were 200 μL/well contains: 1) THP-1 cells=180 μL, 2) test compounds=10 μL, 3) 2′3′-cGAMP or 2′3′-cGAM(PS)2 (Rp/Sp) or vehicle control=10 μL.
After incubation for 24 hours at 37° C., 5% CO2, the supernatants were harvested at 200×g for 10 minutes. Cell culture supernatants were then transferred to a clean plate and stored at −80° C. until ready to analyze for IFN-β levels. The IFN-β levels in cell culture supernatants were determined by ELISA kits (PBL Assay Science, catalog #41410) according to the manufacturer's instructions.
The % increase measured for IFN-β in cells treated by the test compounds 12, 48, 89, 103 and 121 relative to that of untreated cells were tested (as shown in FIGS. 1A-1E).

Row | pIC50 (human soluble ENPP1 [1]) | pIC50 (human soluble ENPP1 [3]) | pIC50 (ENPP-1, MDA-MB-231 cells) | inhibition at 20 µM (ENPP-1, MDA-MB-231 cells) [%] | SMILES | pIC50 (ENPP-1, HEK293 cells) | inhibition at 20 µM (ENPP-1, HEK293 cells; HEK293, read-out: Inhibition (at 20 μM)) [%] | pIC50 (ENPP-1, Saos-2 cells) | inhibition at 20 µM (ENPP-1, Saos-2 cells; SAOS-2, read-out: % Inhibition (@20 μM)) [%] | Hepatic extraction ratio Re ([2]; Human liver microsome) | Half-life t1/2 (min) ([2]; Human liver microsome 0.5 mg/mL, NADPH and UDPGA, 37° C.) | Hepatic extraction ratio Re ([4]; Mouse liver microsome) | Half-life t1/2 (min) ([4]; Mouse liver microsome 0.5 mg/mL, NADPH and UDPGA, 37° C.) | % increase measured for IFN-β relative to that of untreated cells [5]
1 | 10.22 | 10.05 | 7.47 | 87 | COc1ccc2c(ncc3[nH]c(=O)n(Cc4c(F)cc(S(N)(=O)=O)cc4F)c32)n1 [Compound 103, 3,5-difluoro-4-((7-methoxy-2-oxo-2,3-dihydro-1H-imidazo[4,5-c][1,8]naphthyridin-1-yl)methyl)benzenesulfonamide] |  |  |  |  |  |  |  |  | potently increased the IFN-β levels at very low concentrations
2 | 7.51 | 8.03 | 8.09 | 91 | COc1ccc2c(ncc3[nH]c(=O)n(Cc4ccc(P(=O)(O)O)c(F)c4)c32)n1 [Compound 121, (2-fluoro-4-((7-methoxy-2-oxo-2,3-dihydro-1H-imidazo[4,5-c][1,8]naphthyridin-1-yl)methyl)phenyl)phosphonic acid] |  |  |  |  |  |  |  |  | potently increased the IFN-β levels at very low concentrations

Row | SMILES | pIC50 (human soluble ENPP1 [1]) | pIC50 (human soluble ENPP1 [3]) | pIC50 (ENPP-1, MDA-MB-231 cells) | inhibition at 20 µM (ENPP-1, MDA-MB-231 cells) [%] | pIC50 (ENPP-1, HEK293 cells) | inhibition at 20 µM (ENPP-1, HEK293 cells; HEK293, read-out: Inhibition (at 20 μM)) [%] | pIC50 (ENPP-1, Saos-2 cells) | inhibition at 20 µM (ENPP-1, Saos-2 cells; SAOS-2, read-out: % Inhibition (@20 μM)) [%] | Hepatic extraction ratio Re ([2]; Human liver microsome) | Half-life t1/2 (min) ([2]; Human liver microsome 0.5 mg/mL, NADPH and UDPGA, 37° C.) | Hepatic extraction ratio Re ([4]; Mouse liver microsome) | Half-life t1/2 (min) ([4]; Mouse liver microsome 0.5 mg/mL, NADPH and UDPGA, 37° C.) | % increase measured for IFN-β relative to that of untreated cells [5]
3 | COc1ccc2c(c1)ncc1[nH]c(=O)n(Cc3ccc(S(N)(=O)=O)cc3)c12 [Compound 35, 4-((7-methoxy-2-oxo-2,3-dihydro-1H-imidazo[4,5-c]quinolin-1-yl)methyl)benzenesulfonamide] | 7.46 | 9.43 | 5.82 | 73 | 5.47 | 51 | 5.25 | 76 | 0 | ∞ | 0 | ∞ | 
